According to PMC10745061 (Marine Drugs, 2023):
“Also recorded” adds a separate entry of the source. Where two headings read alike, the source gives them in different places. Where a SMILES comes first, the peptide text is derived from it. Bridges are numbered along the chain shown (N, C = ends).

Key:
trypsin = trypsin in 100 mM Tris/HCl buffer (pH 8.0); settings: 37 °C, up to 16 h
[1] = 25% human serum in PBS (pH 7.4) from healthy donor; settings: 37 °C, up to 24 h
[2] = 25% human serum in PBS pH 7.4, 37 °C, RP-HPLC, ratio estimated from MALDI-TOF MS, two independent experiments
E. coli MDR CI 1057 = settings: Mueller–Hinton broth supplemented with 0.9% NaCl, 37 °C
Experimental: Resistance induction experiments were performed using the previously described method. Briefly, on day one, the overnight culture of wild-type bacteria was diluted with the 2× MH broth supplemented with 1.8% NaCl to reach a final cell concentration of 10^6 CFU/mL.

[3] = system: E. coli strains with the MCR-1-mediated colistin resistance; experiment: MIC against strains with MCR-1-mediated colistin resistance; type: cell-based, Escherichia coli; settings: two strains with MCR-1-mediated colistin resistance; medium not stated
Text: (§1) The results were expressed as the median values determined on the basis of at least three independent experiments performed in triplicate.

Escherichia coli ML-35p = settings: salt-containing MHB supplemented with 5% FBS, compared with no FBS
Text: as §1

[4] = system: human red blood cells (hRBCs); experiment: Hemolysis, hemoglobin release assay; type: cell-based
Experimental: Figure 3 Biological activity of the peptides towards human cells. (A) Hemolytic effect on human red blood cells (hRBCs) after 2 h incubation (the hemoglobin release assay). (B) Cytotoxicity towards transformed human embryonic kidney cells (HEK293T) after 16 h incubation (the resazurin assay).
The hemolytic activity of the peptides was tested against the fresh suspension of human red blood cells (hRBC) using the hemoglobin release assay, as described previously. Two experiments were performed with hRBC from blood samples of independent donors. The quantitative data are represented as average means with standard deviations. The cytotoxic effect of the peptides was tested on transformed human embryonic kidney cells (HEK293T) using the resazurin assay. The technique is based on the ability of live cell dehydrogenases to reduce a blue resazurin to pink and fluorescent resorufin. A total of 10^4 cells per well in Dulbecco’s modified Eagle’s medium (DMEM/F12) supplemented with 10% FBS were placed into 96-well plates for 24 h in the CO2-incubator (5% CO2, 37 °C). […] Fluorescence of the formed resorufin was measured with the microplate reader AF2200 (Eppendorf, Germany) using the following channel: λExc = 535 nm, λEm = 595 nm. The fluorescence signal in the wells containing cells cultured without the peptides was assumed to represent 100% cell viability. […]

[5] = system: E. coli ML-35p cytoplasmic membrane; experiment: Cytoplasmic membrane permeabilization, ONPG hydrolysis; type: cell-based, Escherichia coli; settings: at concentrations ≥ MIC values, PBS, 37 °C, ONPG 2.5 mM, OD405
Experimental: Cationic AMPs perform their antibacterial function by damaging membrane integrity and/or specifically inhibiting intracellular processes. In this study, an effect of the obtained peptides on bacterial cytoplasmic membrane integrity was analyzed with the use of E. coli ML-35p, the strain constitutively expressing β-galactosidase and lacking the functional lactose permease which is necessary for the uptake of o-nitrophenyl-β-D-galactoside (ONPG). When β-galactosidase cleaves ONPG, β-D-galactose and o-nitrophenol are released. The latter is a chromogenic product with absorbance at 405 nm. […] Thus, the rapid membranolytic mode of action seems to be predominant for the HfBRI-28 peptide.
Figure 4 Kinetics of changes in the E. coli ML35p cytoplasmic membrane permeability measured with the use of ONPG (OD405) hydrolysis caused by the examined peptides. Peptide concentrations (μM) are presented within the dashed box. […]
To examine the ability of the peptides to affect the barrier function of inner membrane of Gram-negative bacteria, we used the E. coli ML-35p strain constitutively expressing cytoplasmic β-galactosidase but lacking lactose permease. The state of the E. coli ML-35p cytoplasmic membrane was assessed based on its permeability to chromogenic marker o-nitrophenyl-β-D-galactopyranoside (ONPG, AppliChem), which is the β-galactosidase substrate. […]

RP-HPLC retention time = type: physicochemical; settings: semi-preparative RP-HPLC, C18 column, linear gradient 5 to 80% (v/v) acetonitrile in water with 0.1% TFA within 50 min
Experimental: Figure 2 Structure analysis of the novel BRICHOS-related peptides HfBRI-25 and HfBRI-28. (A) Characteristics of the obtained peptides. ^1 Mean Kyte–Doolittle hydrophobicity index (GRAVY) was calculated using the Expasy ProtParam tool. The maximum and minimum values of this index are +4.5 and −4.5 for poly-Ile and poly-Arg sequences, respectively. ^2 Percentage of hydrophobic amino acids was calculated using the APD3 database. ^3 Retention times were measured using semi-preparative reversed-phase high-performance liquid chromatography (RP-HPLC) on a C18 column with a linear gradient from 5 to 80% (v/v) acetonitrile in water containing 0.1% trifluoroacetic acid (TFA) within 50 min. ^4 Molecular masses were calculated by considering the presence of four Cys residues forming two disulfide bonds in the case of HfBRI-25. ^5 Molecular masses were determined experimentally using MALDI-TOF mass spectrometry. (B) Spatial structures of HfBRI-25 and HfBRI-28 were modeled using the AlphaFold algorithm (ColabFold server). The top-rated models, according to predicted local distance difference test (pLDDT) scores, were visualized by the PyMOL software. (C) The CD-spectra of the peptides in water or in the presence of 30 mM DPC micelles. (D) The CONTINLL program was used for CD data analysis. […]

[6] = system: E. coli K12 SBS 1936 biofilm; experiment: Effect on established biofilm, MTT assay; type: cell-based, Escherichia coli; settings: wide concentration range, 24 h pre-formed biofilm, 16 h treatment in LB, 37 °C
Experimental: Bacterial biofilms play an important role in UTIs, being responsible for their persistence. Therefore, the eradication of mature biofilms is an extremely challenging task because high concentrations or doses of antibacterial agents are required. Here, the ability of HfBRI-25 to disrupt established biofilms was evaluated as a number of viable bacteria in biofilm using the MTT assay. According to our previous data, E. coli K12 SBS 1936 was chosen as a strong biofilm-producer that can form it in different media.
E. coli K12 SBS1936 was grown in LB broth overnight at 37 °C and diluted in the same media to obtain 1 × 10^6 CFU/mL. A total of 100 μL of bacterial suspension was added to each well of the 96-well polystyrene plate and grown at 32 °C and 120 rpm for 24 h. The wells were washed twice with sterile water to remove non-adherent cells. In parallel, 100 μL of peptide or ciprofloxacin solutions, serially diluted in LB medium using a separate 96-well polystyrene plate, were added to each well with pre-formed biofilm and incubated at 37 °C and 180 rpm for 16 h. Biofilm viability was assessed by using the MTT reagent (Sigma). […] Absorbance of each well was measured at 570 nm. Bacterial survival was calculated as a percentage relative to samples without antimicrobial agent. […]

E. coli ATCC 25922 = settings: BALB/c mice, n = 5, i.p. infection 10^6 CFU with 2.5% mucin; 10 mg/kg i.p. at 1 h and 4 h after infection; 7 days

SPRGCFCVWISVNGRRVRRCWGSGC
fragment found (trypsin): (4–16), major; also recorded: (19–25), major | cleaved bond [1]: Pro2-R3, major, 1 h

CC[C@H](C)[C@@H]1NC(=O)[C@H](Cc2c[nH]c3ccccc23)NC(=O)[C@H](C(C)C)NC(=O)[C@@H]2CSSC[C@H](NC(=O)[C@H](CCCNC(=N)N)NC(=O)[C@H](CCCNC(=N)N)NC(=O)[C@H](C(C)C)NC(=O)[C@H](CCCNC(=N)N)NC(=O)[C@H](CCCNC(=N)N)NC(=O)CNC(=O)[C@H](CC(N)=O)NC(=O)[C@H](C(C)C)NC(=O)[C@H](CO)NC1=O)C(=O)N[C@@H](Cc1c[nH]c3ccccc13)C(=O)NCC(=O)N[C@@H](CO)C(=O)NCC(=O)N[C@H](C(=O)O)CSSC[C@H](NC(=O)CNC(=O)[C@@H](N)CCCNC(=N)N)C(=O)N[C@@H](Cc1ccccc1)C(=O)N2 [form “b”] (H-RGCFCVWISVNGRRVRRCWGSGC-OH; disulfide 3-23, 5-18; N-terminus and C-terminus assumed)
a/b (%), ratio of the peptide forms in serum ([2]; time 0 h): 0% | a/b (%), ratio of the peptide forms in serum ([2]; time 1 h): 61% | a/b (%), ratio of the peptide forms in serum ([2]; time 3 h): 94% | a/b (%), ratio of the peptide forms in serum ([2]; time 24 h): 100%

polymyxin B [reference compound]
Initial MIC value before resistance selection (E. coli MDR CI 1057): 0.125 µM | MIC against MCR-1 colistin-resistant strains [3]: 2 µM

CC[C@H](C)[C@H](NC(=O)CNC(=O)[C@H](CCCCN)NC(=O)[C@H](Cc1c[nH]c2ccccc12)NC(=O)[C@@H](NC(=O)[C@H](CO)NC(=O)[C@H](CCCCN)NC(=O)[C@H](CC(C)C)NC(=O)[C@H](Cc1c[nH]c2ccccc12)NC(=O)CN)[C@@H](C)CC)C(=O)N[C@@H](CCCCN)C(=O)N[C@@H](CCCCN)C(=O)N[C@@H](C)C(=O)N[C@H](C(=O)N[C@@H](CCCCN)C(=O)N[C@@H](Cc1c[nH]c2ccccc12)C(=O)N[C@H](C(=O)N[C@@H](CC(C)C)C(=O)N[C@@H](CCCNC(=N)N)C(=O)N[C@@H](Cc1c[nH]cn1)C(=O)NCC(=O)N[C@H](C(=O)N[C@@H](Cc1ccc(O)cc1)C(=O)N[C@H](C(=O)N[C@@H](CCCNC(=N)N)C(=O)N[C@H](C(=O)N[C@H](C(=O)N[C@@H](Cc1ccccc1)C(=O)O)[C@@H](C)O)[C@@H](C)CC)C(C)C)C(C)C)C(C)C)C(C)C [HfBRI-28] (H-GWLKSIWKGIKKAVKWVLRHGVYVRITF-OH)
Increase in MIC in the presence of serum (Escherichia coli ML-35p): four- to eight-fold | Hemolytic effect on human red blood cells [4]: strong hemolytic effect | Membrane damage [5]: effectively damaged membranes | RP-HPLC Retention Time (RP-HPLC retention time): 40.5 min

O=C(O)c1cn(C2CC2)c2cc(N3CCNCC3)c(F)cc2c1=O [ciprofloxacin, reference compound]
Anti-biofilm efficiency (bacterial viability inside established biofilm) [6]: high efficiency at a wide concentration range | Survival / therapeutic efficacy (E. coli ATCC 25922): survival of all mice
